Drawing on BindingDB's records for doi:10.1021/jm9805081 (Warner-Lambert, 1999), this text covers IC50 for one molecule.

What is called IC50 is the concentration that inhibits the measured activity by half.

The target of this experiment is T1, Prostaglandin G/H synthase 2 (Homo sapiens, UniProt P35354).
T1 sequence (P35354 whole entry): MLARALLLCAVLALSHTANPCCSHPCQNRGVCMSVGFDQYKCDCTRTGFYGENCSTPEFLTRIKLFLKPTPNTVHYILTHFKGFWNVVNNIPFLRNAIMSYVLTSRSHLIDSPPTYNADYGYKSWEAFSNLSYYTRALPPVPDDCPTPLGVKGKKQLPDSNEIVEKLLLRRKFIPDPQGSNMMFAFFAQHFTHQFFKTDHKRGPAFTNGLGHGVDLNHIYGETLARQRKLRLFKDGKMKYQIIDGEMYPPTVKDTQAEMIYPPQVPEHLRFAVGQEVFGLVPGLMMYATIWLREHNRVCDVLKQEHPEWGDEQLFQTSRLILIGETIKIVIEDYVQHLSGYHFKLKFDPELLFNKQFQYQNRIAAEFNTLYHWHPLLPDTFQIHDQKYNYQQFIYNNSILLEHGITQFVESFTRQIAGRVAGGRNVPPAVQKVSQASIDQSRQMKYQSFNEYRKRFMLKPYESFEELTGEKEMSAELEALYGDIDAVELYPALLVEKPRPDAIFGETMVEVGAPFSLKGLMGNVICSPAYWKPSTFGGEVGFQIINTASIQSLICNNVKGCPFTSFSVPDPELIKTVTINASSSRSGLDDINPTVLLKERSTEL
Kind of experiment: IC50 value against recombinant human Prostaglandin G/H synthase 2 at 10 uM; not active.

Take `CONC1=NC(=O)C(=Cc2cc(C(C)(C)C)c(O)c(C(C)(C)C)c2)O1` [5-[1-(3,5-Di-tert-butyl-4-hydroxy-phenyl)-meth-(Z)-ylidene]-2-methoxyamino-oxazol-4-one]: the IC50 is over 10 µM.
